Type in all cases: biochemical
One assay addresses PDE1C (Homo sapiens, UniProt Q14123). The assay is described as follows: PDE1 inhibition assay (SPA), PDE1C. The conditions noted are these: for IC50: concentration required to reach 50% inhibition of the enzyme, 15 nM tritium labelled cAMP, read-out: PDE1C inhibition (nM or %): IC50. How it is done:
(§1) PDE1 Inhibition Assay PDE1A, PDE1B and PDE1C assays were performed as follows: the assays were performed in 60 μL samples containing a fixed amount of the PDE1 enzym1 (sufficient to convert 20-25% of the cyclic nucleotide substrate), a buffer (50 mM HEPES pH 7.6; 10 mM MgCl2; 0.02% Tween20), 0.1 mg/ml BSA, 15 nM tritium labelled cAMP and varying amounts of inhibitors. Reactions were initiated by addition of the cyclic nucleotide substrate, and reactions were allowed to proceed for 1 h at room temperature before being terminated through mixing with 20 μL (0.2 mg) yttrium silicate SPA beads (PerkinElmer). The beads were allowed to settle for 1 h in the dark before the plates were counted in a Wallac 1450 Microbeta counter. The measured signals were converted to activity relative to an uninhibited control (100%) and IC50 values were calculated using XIFit (model 205, IDBS).

In the next assay the target is PDE1B (Homo sapiens, UniProt Q01064). The assay is described as follows: PDE1 inhibition assay (SPA), PDE1B. Particulars: for IC50: concentration required to reach 50% inhibition of the enzyme, 15 nM tritium labelled cAMP, read-out: PDE1B inhibition (nM or %): IC50. How it is done: as §1
A further assay deals with PDE1A (Homo sapiens, UniProt P54750). The experiment in a line: PDE1 inhibition assay (SPA), PDE1A. The conditions noted are these: for IC50: concentration required to reach 50% inhibition of the enzyme, 15 nM tritium labelled cAMP, read-out: PDE1A inhibition (nM or %): IC50. How it is done:
as §1

The values below come from patent US10150771B2, “Triazolopyrazinones as PDE1 inhibitors” (H. Lundbeck A/S, priority 2014, dated 2018).

Chain of PDE1B (Q01064 whole entry): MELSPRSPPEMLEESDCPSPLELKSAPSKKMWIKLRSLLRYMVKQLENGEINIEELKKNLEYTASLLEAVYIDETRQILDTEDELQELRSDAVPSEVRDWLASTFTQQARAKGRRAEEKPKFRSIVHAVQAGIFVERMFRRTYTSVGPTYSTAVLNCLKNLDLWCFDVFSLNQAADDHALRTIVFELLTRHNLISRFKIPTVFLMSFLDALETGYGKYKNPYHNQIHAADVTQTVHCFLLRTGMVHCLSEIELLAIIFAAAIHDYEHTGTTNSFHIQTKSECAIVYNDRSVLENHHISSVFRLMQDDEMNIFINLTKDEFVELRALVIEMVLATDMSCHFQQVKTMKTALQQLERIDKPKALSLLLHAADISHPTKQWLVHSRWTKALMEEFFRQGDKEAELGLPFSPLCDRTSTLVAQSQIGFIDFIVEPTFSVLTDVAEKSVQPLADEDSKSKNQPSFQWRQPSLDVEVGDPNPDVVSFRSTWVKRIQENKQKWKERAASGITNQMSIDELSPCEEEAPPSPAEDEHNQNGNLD
Chain of PDE1C (Q14123 whole entry): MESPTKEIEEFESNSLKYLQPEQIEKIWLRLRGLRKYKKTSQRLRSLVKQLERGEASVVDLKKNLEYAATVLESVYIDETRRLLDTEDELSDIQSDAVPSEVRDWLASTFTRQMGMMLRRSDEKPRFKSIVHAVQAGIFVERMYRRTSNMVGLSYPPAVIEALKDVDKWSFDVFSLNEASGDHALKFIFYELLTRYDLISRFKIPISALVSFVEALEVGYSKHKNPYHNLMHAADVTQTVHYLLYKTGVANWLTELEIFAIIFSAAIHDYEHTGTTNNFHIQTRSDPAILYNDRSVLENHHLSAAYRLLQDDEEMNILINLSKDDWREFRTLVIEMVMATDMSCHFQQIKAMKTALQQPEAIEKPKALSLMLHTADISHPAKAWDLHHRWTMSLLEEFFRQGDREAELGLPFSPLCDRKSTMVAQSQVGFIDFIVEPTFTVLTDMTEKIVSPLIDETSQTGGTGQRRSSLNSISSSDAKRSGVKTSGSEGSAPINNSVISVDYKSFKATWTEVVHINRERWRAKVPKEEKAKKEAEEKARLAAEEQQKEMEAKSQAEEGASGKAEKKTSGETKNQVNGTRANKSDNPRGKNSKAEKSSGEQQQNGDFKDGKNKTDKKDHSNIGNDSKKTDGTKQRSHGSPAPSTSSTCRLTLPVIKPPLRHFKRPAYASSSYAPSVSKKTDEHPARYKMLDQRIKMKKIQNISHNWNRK
Chain of PDE1A (P54750 whole entry): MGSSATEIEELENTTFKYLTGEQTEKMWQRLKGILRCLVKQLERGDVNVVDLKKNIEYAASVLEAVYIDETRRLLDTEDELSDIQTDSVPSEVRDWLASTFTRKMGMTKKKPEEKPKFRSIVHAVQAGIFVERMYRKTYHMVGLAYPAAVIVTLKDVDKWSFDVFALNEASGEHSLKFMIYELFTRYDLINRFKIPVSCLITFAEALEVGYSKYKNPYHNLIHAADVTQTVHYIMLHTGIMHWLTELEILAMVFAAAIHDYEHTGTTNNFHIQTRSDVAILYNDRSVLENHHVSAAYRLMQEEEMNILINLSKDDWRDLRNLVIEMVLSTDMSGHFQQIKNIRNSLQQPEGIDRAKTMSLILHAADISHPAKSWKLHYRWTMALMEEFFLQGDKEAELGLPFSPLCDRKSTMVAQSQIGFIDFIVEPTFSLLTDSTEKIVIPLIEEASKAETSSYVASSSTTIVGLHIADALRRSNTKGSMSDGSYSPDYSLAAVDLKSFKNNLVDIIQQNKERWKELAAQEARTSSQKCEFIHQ

In the case of `Cc1ccccc1Cc1cn2c(C3CCOCC3)nnc2c(=O)n1Cc1cccc(F)c1` [7-(3-fluorobenzyl)-6-(2-methylbenzyl)-3-(tetrahydro-2H-pyran-4-yl)-[1,2,4]triazolo[4,3-a]pyrazin-8(7H)-one], the IC50 on PDE1C was determined as 17 nM; at PDE1B it was 82 nM; on PDE1A it was 91 nM.
On to `Cc1cccc(Cc2cn3c(C4CCOCC4)nnc3c(=O)n2Cc2cccc(F)c2)c1` [7-(3-fluorobenzyl)-6-(3-methylbenzyl)-3-(tetrahydro-2H-pyran-4-yl)-[1,2,4]triazolo[4,3-a]pyrazin-8(7H)-one], for which the IC50 at PDE1C worked out at 2 nM; on PDE1B, 9 nM; on PDE1A it was 6 nM.
Take `O=c1c2nnc(C3CCOCC3)n2cc(Cc2ccc(F)cc2)n1Cc1cccc(F)c1` [7-(3-fluorobenzyl)-6-(4-fluorobenzyl)-3-(tetrahydro-2H-pyran-4-yl)-[1,2,4]triazolo[4,3-a]pyrazin-8(7H)-one]: the IC50 amounted to 10 nM at PDE1C, 43 nM on PDE1B and 46 nM at PDE1A.
The like results for `Cc1ccc(Cc2cn3c(C4CCOCC4)nnc3c(=O)n2Cc2cccc(F)c2)cc1` [7-(3-fluorobenzyl)-6-(4-methylbenzyl)-3-(tetrahydro-2H-pyran-4-yl)-[1,2,4]triazolo[4,3-a]pyrazin-8(7H)-one] were, in that order, 1 nM, 6 nM and 7 nM.
Consider `CCCc1nnc2c(=O)n(Cc3cccc(F)c3)c(C)cn12` [7-(3-fluorobenzyl)-6-methyl-3-propyl-[1,2,4]triazolo[4,3-a]pyrazin-8(7H)-one], for which the 50% inhibitory concentration (IC50) is 46 nM at PDE1C, 190 nM on PDE1B and 236 nM on PDE1A.
In the same order, the values of `O=c1c2nnc(C3CCOC3)n2ccn1Cc1ccc(Cl)cc1` (stereo not drawn) [7-(4-Chlorobenzyl)-3-(tetrahydrofuran-3-yl)-[1,2,4]triazolo[4,3-a]pyrazin-8(7H)-one] are 750 nM, 840 nM and 500 nM.
In the same order, the values of `CCc1nnc2c(=O)n(Cc3ccc(Cl)cc3)ccn12` [7-(4-Chlorobenzyl)-3-ethyl-[1,2,4]triazolo[4,3-a]pyrazin-8(7H)-one] are 2400 nM, 800 nM and 1000 nM.
The like results for `CCCc1nnc2c(=O)n(Cc3ccc(Cl)cc3)ccn12` [7-(4-Chlorobenzyl)-3-propyl-[1,2,4]triazolo[4,3-a]pyrazin-8(7H)-one] were, in that order, 170 nM, 83 nM and 620 nM.
`CCCc1nnc2c(=O)n(Cc3ccc(F)cc3)ccn12` [7-(4-Fluorobenzyl)-3-propyl-[1,2,4]triazolo[4,3-a]pyrazin-8(7H)-one]: the half-inhibitory concentration (IC50) was 360 nM on PDE1C, 1200 nM on PDE1B and 970 nM on PDE1A.
In the same order, the values of `CCCc1nnc2c(=O)n(Cc3ccc(C)cc3)ccn12` [7-(4-Methylbenzyl)-3-propyl-[1,2,4]triazolo[4,3-a]pyrazin-8(7H)-one] are 780 nM, 930 nM and 1000 nM.
In the same order, the values of `COc1ccc(Cn2c(C)cn3c(C4CCOCC4)nnc3c2=O)cc1` [7-(4-methoxybenzyl)-6-methyl-3-(tetrahydro-2H-pyran-4-yl)-[1,2,4]triazolo[4,3-a]pyrazin-8(7H)-one] are 37 nM, 34 nM and 54 nM.
On to `CCCc1nnc2c(=O)n(Cc3ccc(OC)cc3)c(C)cn12` [7-(4-methoxybenzyl)-6-methyl-3-propyl-[1,2,4]triazolo[4,3-a]pyrazin-8(7H)-one], for which the IC50 at PDE1C is 44 nM; at PDE1B, 32 nM; at PDE1A it was 66 nM.
In the same order, the values of `CCCc1nnc2c(=O)n(CC3(C)CCCCC3)ccn12` [7-((1-methylcyclohexyl)methyl)-3-propyl-[1,2,4]triazolo[4,3-a]pyrazin-8(7H)-one] are 260 nM, 950 nM and 1300 nM.
In the same order, the values of `CCCc1nnc2c(=O)n(CC3CCC(F)(F)CC3)ccn12` [7-((4,4-difluorocyclohexyl)methyl)-3-propyl-[1,2,4]triazolo[4,3-a]pyrazin-8(7H)-one] are 760 nM, 420 nM and 450 nM.
Turning to `CCCc1nnc2c(=O)n(CC3CCC(C)(C)CC3)ccn12` [7-((4,4-dimethylcyclohexyl)methyl)-3-propyl-[1,2,4]triazolo[4,3-a]pyrazin-8(7H)-one], the IC50 on PDE1C amounted to 110 nM; at PDE1B it was 110 nM; at PDE1A it was 130 nM.
Take `CCCc1nnc2c(=O)n(CC3C4CC5CC(C4)CC3C5)ccn12` (stereo not drawn) [7-(((1r,3r,5r,7r)-adamantan-2-yl)methyl)-3-propyl-[1,2,4]triazolo[4,3-a]pyrazin-8(7H)-one]: the IC50 was 63 nM at PDE1C, 210 nM on PDE1B and 179 nM at PDE1A.
Regarding `CCCc1nnc2c(=O)n(CC34CC5CC(CC(C5)C3)C4)ccn12` [7-(((3r,5r,7r)-adamantan-1-yl)methyl)-3-propyl-[1,2,4]triazolo[4,3-a]pyrazin-8(7H)-one], the 50% inhibitory concentration (IC50) at PDE1C was 63 nM; at PDE1B, 210 nM; at PDE1A it was 180 nM.
The like results for `O=c1c2nnc(C3CCOCC3)n2ccn1CC1CCCCCC1` [7-(Cycloheptylmethyl)-3-(tetrahydro-2H-pyran-4-yl)-[1,2,4]triazolo[4,3-a]pyrazin-8(7H)-one] were, in that order, 42 nM, 33 nM and 43 nM.
For `CCCc1nnc2c(=O)n(CC3CCCCCC3)ccn12` [7-(Cycloheptylmethyl)-3-propyl-[1,2,4]triazolo[4,3-a]pyrazin-8(7H)-one], the half-inhibitory concentration (IC50) at PDE1C was determined as 33 nM; at PDE1B it was 28 nM; on PDE1A it was 54 nM.
In the same order, the values of `O=c1c2nnc(C3CCOCC3)n2ccn1CC1CCCCC1` [7-(Cyclohexylmethyl)-3-(tetrahydro-2H-pyran-4-yl)-[1,2,4]triazolo[4,3-a]pyrazin-8(7H)-one] are 87 nM, 190 nM and 220 nM.
The like results for `CCCc1nnc2c(=O)n(CC3CCCCC3)ccn12` [7-(Cyclohexylmethyl)-3-propyl-[1,2,4]triazolo[4,3-a]pyrazin-8(7H)-one] were, in that order, 47 nM, 81 nM and 96 nM.
The like results for `O=c1c2nnc(C3CCOCC3)n2ccn1CC1CCCC1` [7-(Cyclopentylmethyl)-3-(tetrahydro-2H-pyran-4-yl)-[1,2,4]triazolo[4,3-a]pyrazin-8(7H)-one] were, in that order, 110 nM, 990 nM and 1100 nM.
As to `CCCc1nnc2c(=O)n(CC3CCCC3)ccn12` [7-(Cyclopentylmethyl)-3-propyl-[1,2,4]triazolo[4,3-a]pyrazin-8(7H)-one], the figures for the 50% inhibitory concentration (IC50) on PDE1C, at PDE1B and on PDE1A were 95 nM, 820 nM and 840 nM, respectively.
The like results for `CCCc1nnc2c(=O)n(CC3CC3)ccn12` [7-(Cyclopropylmethyl)-3-propyl-[1,2,4]triazolo[4,3-a]pyrazin-8(7H)-one] were, in that order, 1300 nM, 2000 nM and 3600 nM.
Regarding `CCCc1nnc2c(=O)n(CC3COC3)ccn12` [7-(Oxetan-3-ylmethyl)-3-propyl-[1,2,4]triazolo[4,3-a]pyrazin-8(7H)-one], at PDE1C (% inhibition of the enzyme at a concentration of 10 micro molar of the compound), the “PDE1C inhibition (nM or %): % inhib” value is on record as 57%. Also, the inhibition at 10 µM at PDE1B (1 h, % inhibition of the enzyme at a concentration of 10 micro molar of the compound, read-out: PDE1B inhibition (nM or %): % inhib) came out at 46%; on PDE1A (1 h, % inhibition of the enzyme at a concentration of 10 micro molar of the compound, read-out: PDE1A inhibition (nM or %): % inhib) it was 37%.
Turning to `Cc1ccccc1Cc1cn2c(C3CCOCC3)nnc2c(=O)n1CC1CCCCCC1` [7-(cycloheptylmethyl)-6-(2-methylbenzyl)-3-(tetrahydro-2H-pyran-4-yl)-[1,2,4]triazolo[4,3-a]pyrazin-8(7H)-one], the 50% inhibitory concentration (IC50) stood at 14 nM at PDE1C, 39 nM at PDE1B and 25 nM at PDE1A.
In the same order, the values of `O=c1c2nnc(C3CCOCC3)n2cc(Cc2ccc(F)cc2)n1CC1CCCCCC1` [7-(cycloheptylmethyl)-6-(4-fluorobenzyl)-3-(tetrahydro-2H-pyran-4-yl)-[1,2,4]triazolo[4,3-a]pyrazin-8(7H)-one] are 4 nM, 9 nM and 3 nM.
The like results for `Cc1ccc(Cc2cn3c(C4CCOCC4)nnc3c(=O)n2CC2CCCCCC2)cc1` [7-(cycloheptylmethyl)-6-(4-methylbenzyl)-3-(tetrahydro-2H-pyran-4-yl)-[1,2,4]triazolo[4,3-a]pyrazin-8(7H)-one] were, in that order, 0.37 nM, 1 nM and 0.86 nM.
Consider `Cc1ccccc1Cc1cn2c(C3CCOCC3)nnc2c(=O)n1CC1CCCCC1` [7-(cyclohexylmethyl)-6-(2-methylbenzyl)-3-(tetrahydro-2H-pyran-4-yl)-[1,2,4]triazolo[4,3-a]pyrazin-8(7H)-one], for which the IC50 at PDE1C was 10 nM; on PDE1B, 44 nM; at PDE1A it was 41 nM.

The IC50 is the concentration needed to halve the response being measured. For orientation: inhibition means the drop in the measured response relative to a control, in per cent.
